For this assay, the system named is staphylococcus epidermidis. The following applies: in vitro. The source says:
One skilled in the are would be able to determine the best effective concentration of the active agent, such about 0.05%, about 1%, about 5%, about 10%, about 20%, or the like that should be deployed in a choosen configuration of a given device.
FIG. 10 is a conceptual diagram illustrating an in vitro testing system 160 with an active agent. Testing system 160 includes a culture plate 162, which serves as a test platform. […] A experimental tube 168 made at least in part of diffusible material is deployed in plate 162 proximate to microorganisms 166. The diffusible material is configured to pass the test agent to the indicator by diffusion. Experimental tube 168 may be wholly or partially embedded in growth medium 164, or may rest atop growth medium 164. Experimental tube 168 includes a lumen configured to receive a test active agent.
A pump 170 pumps the active agent from a reservoir 172 into the lumen of tube 168. A valve 174 may be closed to prevent leakage or other discharge of the active agent from tube 168, and an outlet reservoir 176 may be provided to collect fluid that discharges from tube 168. In some embodiments, pump 170, valve 174, or both are electronically controlled such that the quantity of active agent in tube 168 is known, such that the pressure of active agent in tube 168 is known, or such that the flow rate of active agent in tube 168 is known. When the active agent is an antibiotic, the effect of the antibiotic agent on microorganisms 166, if any, can be observed using conventional observational techniques, such as optical or microscopic examination. In this way, the effect of the active agent on microorganisms 166 serves as an indicator of diffusion of the test agent through the diffusible material.

With `OO` [hydrogen peroxide], for the setting “0.3 percent hydrogen peroxide concentration”, the “zone of inhibition of bacterial growth” value was “about twenty-five”. Further, under “thirty percent concentration hydrogen peroxide solution, diffusing through polyethylene 80 (PE80A) tubing”, the “zone of inhibition of bacterial growth from the site of diffusion” value is “eighty”. The “effectiveness against staphylococcus epidermidis” value (thirty percent concentration hydrogen peroxide solution) was “substantial effectiveness”.
